From patent publication US6063766A, “Transport protein which effects the transport of cationic xenobiotics and/or pharmaceuticals, DNA sequences encoding it and their use” (priority 1994, dated 2000)
Where two headings read alike, the source gives them in different places.

Legend:
[1] = biological target: T1, OCT1 transport protein (Rattus norvegicus, UniProt Q63089); settings: xenopus oocytes expressing oct1
T1 sequence (Q63089 1-556): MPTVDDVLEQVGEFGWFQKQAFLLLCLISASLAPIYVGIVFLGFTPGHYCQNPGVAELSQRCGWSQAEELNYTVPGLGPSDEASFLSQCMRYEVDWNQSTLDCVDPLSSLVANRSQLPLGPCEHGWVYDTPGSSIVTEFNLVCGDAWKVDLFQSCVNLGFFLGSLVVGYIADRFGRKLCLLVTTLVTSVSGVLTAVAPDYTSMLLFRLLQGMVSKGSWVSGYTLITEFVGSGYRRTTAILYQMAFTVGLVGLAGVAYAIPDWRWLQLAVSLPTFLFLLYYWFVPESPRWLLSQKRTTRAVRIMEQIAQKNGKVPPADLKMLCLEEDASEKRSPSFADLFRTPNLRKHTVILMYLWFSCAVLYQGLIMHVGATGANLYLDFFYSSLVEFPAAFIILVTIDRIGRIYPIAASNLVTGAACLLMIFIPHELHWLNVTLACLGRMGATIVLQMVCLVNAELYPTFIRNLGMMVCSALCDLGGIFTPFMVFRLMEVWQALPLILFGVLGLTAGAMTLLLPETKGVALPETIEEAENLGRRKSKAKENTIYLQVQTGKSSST

[2] = biological target: T1, OCT1 transport protein; assay: Inhibition of ^14 C-TEA uptake in Xenopus laevis oocytes injected with OCT1 cRNA
[3] = biological target: MPP uptake in hepatocytes; settings: cultured hepatocytes; cited from earlier work
[4] = tested on: LLC-PK1 cells, luminal membrane; settings: read-out: Ki for transport of TEA across the luminal membrane, LLC-PK1 cells; cited from earlier work
[5] = biological target: T1, OCT1 transport protein; assay: cell-based
[6] = tested on: LLC-PK1 cells, basolateral membrane; settings: estimated, read-out: Ki for transport of TEA across the basolateral membrane, LLC-PK1 cells; cited from earlier work
[7] = biological target: luminal uptake of TEA; settings: previous investigations, cited from earlier work
[8] = biological target: basolateral membrane of rat proximal renal tubules; settings: microperfusion experiments; previous investigations; read-out: Ki for basolateral uptake of TEA into rat proximal renal tubules; cited from earlier work
[9] = biological target: T1, OCT1 transport protein; settings: 8 ng OCT1 cRNA injected
[10] = tested on: neuronal monoamine transport protein in synaptic vesicles; settings: cited from earlier work
[11] = Ki for inhibition of OCT1-elicited ^14 C-TEA uptake

Work on `C[n+]1ccc(-c2ccccc2)cc1` [1-Methyl-4-phenylpyridinium] yielded a Ki [1] of 13 ± 2 µM.
For `CC[n+]1c(C=C2C=C(C)N=C(c3ccccc3)N2C)ccc2ccccc21` [Cyanine 863, 1-ethyl-2([1,4-dimethyl-2-phenyl-6-pyrimidinylidene]methyl)quinoliniumchloride], the Ki [2, 11] is listed as 0.00013 mM and the Ki [3] is listed as 0.1 µM.
In the case of `CCN1C(=Cc2ccc3ccccc3[n+]2CC)C=Cc2ccccc21` [Decynium 22], the Ki [4] is given as 0.0056 µM, the Ki [1] is given as 0.36 ± 0.08 µM and the Ki [3] is given as 0.23 µM. The Ki [5] was 0.4 µM and the Ki [6] was greater than 0.1 µM.
With `CNCCCN1c2ccccc2CCc2ccccc21` [Desipramine] the “inhibition of OCT1-elicited ^14 C-TEA uptake (in words)” value [2] was “inhibited”.
`CC(C)C(c1ccccc1)C(O)CC[N+]1(C)CCCCC1` (centres unmarked) [Mepiperphenidol] showed a Ki [1] of 5.2 ± 0.3 µM.
For `C[n+]1cccc(C(N)=O)c1` [N^1 -Methylnicotinamide], the “inhibition by NMN of OCT1-induced ^14 C-TEA uptake (in words)” value [2] was “able to inhibit”, the “inhibition of OCT1-elicited ^14 C-TEA uptake (in words)” value [2] was “inhibited” and the Ki [2, 11] was 1 ± 0.2 mM. For the same molecule, the Ki ([2]; Ki for inhibition of OCT1-elicited ^14 C-TEA uptake (mM, text)) was roughly 1 mM, the Ki ([7]; read-out: Ki for luminal uptake of TEA (printed in nM)) was 8.3e+06 nM and the Ki [8] was 540 µM.
In the case of `COc1cc(C(O)CNC(C)C)ccc1O` (centres unmarked) [O-Methylisoprenaline], the “inhibition of OCT1-elicited ^14 C-TEA uptake (in words)” value ([2]; oocytes injected with OCT1 cRNA) is given as “inhibited”, the Ki [1] is given as 43 ± 5 µM and the Ki [3] is given as 78 µM.
In the case of `C=C[C@H]1C[N@@]2CC[C@H]1C[C@H]2[C@H](O)c1ccnc2ccc(OC)cc12` [Quinine], the “inhibition of expressed ^3 H-MPP uptake (in words)” value [9] is reported as “inhibited”.
In the case of `COC(=O)[C@H]1[C@H]2C[C@@H]3c4[nH]c5cc(OC)ccc5c4CCN3C[C@H]2C[C@@H](OC(=O)c2cc(OC)c(OC)c(OC)c2)[C@@H]1OC` [Reserpine], the “effect on OCT1-elicited transport” value ([2]; 5 μM) is listed as “no effect” and the “inhibiting concentration, neuronal monoamine transport protein in synaptic vesicles” value [10] is listed as “sub-nanomolar”.
In the case of `C[N+](C)(C)C` [Tetramethylammonium], the “inhibition of OCT1-elicited ^14 C-TEA uptake (in words)” value [2] is given as “inhibited”, the Ki ([7]; read-out: Ki for luminal uptake of TEA) is given as 7e+07 nM and the Ki [8] is given as 1400 µM.
For `CCCCC[N+](CCCCC)(CCCCC)CCCCC` [Tetrapentylammonium], the Ki [1] was 0.43 ± 0.09 µM.
